Data from ChEMBL document CHEMBL4706583, “2-Anilinoquinoline based arylamides as broad spectrum anticancer agents with B-RAF/C-RAF kinase inhibitory effects: Design, synthesis, in vitro cell-based and oncogenic kinase assessments” (Eur J Med Chem, 2020).
pIC50: −log10 of the molar value.

Assays:
HL-60(TB) = test: Growth inhibition of human HL-60(TB) cells measured after 48 hrs by SRB assay; assay type: functional
RPMI-8226 = test: Growth inhibition of human RPMI-8226 cells measured after 48 hrs by SRB assay; assay type: functional
A549 = test: Growth inhibition of human A549 cells measured after 48 hrs by SRB assay; assay type: functional
HOP-62 = test: Growth inhibition of human HOP-62 cells measured after 48 hrs by SRB assay; assay type: functional
NCI-H322M = test: Growth inhibition of human NCI-H322M cells measured after 48 hrs by SRB assay; assay type: functional
NCI-H460 = test: Growth inhibition of human NCI-H460 cells measured after 48 hrs by SRB assay; assay type: functional
HCT-15 = test: Growth inhibition of human HCT-15 cells measured after 48 hrs by SRB assay; assay type: functional
SW-620 = test: Growth inhibition of human SW-620 cells measured after 48 hrs by SRB assay; assay type: functional
SF-295 = test: Growth inhibition of human SF-295 cells measured after 48 hrs by SRB assay; assay type: functional
SNB-19 = test: Growth inhibition of human SNB-19 cells measured after 48 hrs by SRB assay; assay type: functional
SNB-75 = test: Growth inhibition of human SNB-75 cells measured after 48 hrs by SRB assay; assay type: functional
SK-MEL-2 = test: Growth inhibition of human SK-MEL-2 cells measured after 48 hrs by SRB assay; assay type: functional
OVCAR-3 = test: Growth inhibition of human OVCAR-3 cells measured after 48 hrs by SRB assay; assay type: functional
OVCAR-4 = test: Growth inhibition of human OVCAR-4 cells measured after 48 hrs by SRB assay; assay type: functional
NCI/ADR-RES = test: Growth inhibition of human NCI/ADR-RES cells measured after 48 hrs by SRB assay; assay type: functional
SK-OV-3 = test: Growth inhibition of human SK-OV-3 cells measured after 48 hrs by SRB assay; assay type: functional
A498 = test: Growth inhibition of human A498 cells measured after 48 hrs by SRB assay; assay type: functional
TK-10 = test: Growth inhibition of human TK-10 cells measured after 48 hrs by SRB assay; assay type: functional
MCF7 = test: Growth inhibition of human MCF7 cells measured after 48 hrs by SRB assay; assay type: functional
Hs-578T = test: Growth inhibition of human Hs-578T cells measured after 48 hrs by SRB assay; assay type: functional
T47D = test: Growth inhibition of human T47D cells measured after 48 hrs by SRB assay; assay type: functional
[1] = Cytotoxicity against human L132 cells assessed as cell viability at 1 uM measured after 48 hrs by EZ-Cytox assay relative to control; assay type: cell-based; conditions: read-out: Activity
[2] = Cytotoxicity against human L132 cells assessed as cell viability at 3 uM measured after 48 hrs by EZ-Cytox assay relative to control; assay type: cell-based; conditions: read-out: Activity
[3] = Cytotoxicity against human L132 cells assessed as cell viability at 10 uM measured after 48 hrs by EZ-Cytox assay relative to control; assay type: cell-based; conditions: read-out: Activity
[4] = Cytotoxicity against African green monkey Vero cells assessed as cell viability at 3 uM measured after 48 hrs by EZ-Cytox assay relative to control; assay type: cell-based; conditions: chlorocebus sabaeus, read-out: Activity
HCT-116 [5] = test: Cell cycle arrest in human HCT-116 cells assessed as increase in G0/G1-phase accumulation measured after 24 to 48 hrs by propidium iodide staining based flow cytometry; assay type: functional; conditions: dose 1.25-5 µM, time 24-48 hrs
HCT-116 [6] = test: Induction of apoptosis in human HCT-116 cells assessed as early apoptotic cells at 1.25 uM measured after 24 hrs by Annexin-V Alexa Fluor488/propidium iodide staining based flow cytometry (reference value: 6.3%); assay type: functional
HCT-116 [7] = test: Induction of apoptosis in human HCT-116 cells assessed as late apoptotic cells at 1.25 uM measured after 24 hrs by Annexin-V Alexa Fluor488/propidium iodide staining based flow cytometry (reference value: 1%); assay type: functional
HCT-116 [8] = test: Induction of apoptosis in human HCT-116 cells assessed as necrotic cells at 1.25 uM measured after 24 hrs by Annexin-V Alexa Fluor488/propidium iodide staining based flow cytometry (reference value: 4.6%); assay type: functional
HCT-116 [9] = test: Induction of apoptosis in human HCT-116 cells assessed as viable cells at 2.5 uM measured after 24 hrs by Annexin-V Alexa Fluor488/propidium iodide staining based flow cytometry (reference value: 88.1%); assay type: functional; conditions: read-out: Activity
HCT-116 [10] = test: Induction of apoptosis in human HCT-116 cells assessed as early apoptotic cells at 2.5 uM measured after 24 hrs by Annexin-V Alexa Fluor488/propidium iodide staining based flow cytometry (reference value: 6.3%); assay type: functional
HCT-116 [11] = test: Induction of apoptosis in human HCT-116 cells assessed as late apoptotic cells at 5 uM measured after 24 hrs by Annexin-V Alexa Fluor488/propidium iodide staining based flow cytometry (reference value: 1%); assay type: functional
HCT-116 [12] = test: Induction of apoptosis in human HCT-116 cells assessed as late apoptotic cells at 1.25 uM measured after 48 hrs by Annexin-V Alexa Fluor488/propidium iodide staining based flow cytometry (reference value: 2.2%); assay type: functional
HCT-116 [13] = test: Induction of apoptosis in human HCT-116 cells assessed as viable cells at 2.5 uM measured after 48 hrs by Annexin-V Alexa Fluor488/propidium iodide staining based flow cytometry (reference value: 82.3%); assay type: functional; conditions: read-out: Activity
HCT-116 [14] = test: Induction of apoptosis in human HCT-116 cells assessed as early apoptotic cells at 2.5 uM measured after 48 hrs by Annexin-V Alexa Fluor488/propidium iodide staining based flow cytometry (reference value: 7.7%); assay type: functional
HCT-116 [15] = test: Induction of apoptosis in human HCT-116 cells assessed as late apoptotic cells at 2.5 uM measured after 48 hrs by Annexin-V Alexa Fluor488/propidium iodide staining based flow cytometry (reference value: 2.2%); assay type: functional
HCT-116 [16] = test: Induction of apoptosis in human HCT-116 cells assessed as necrotic cells at 2.5 uM measured after 48 hrs by Annexin-V Alexa Fluor488/propidium iodide staining based flow cytometry (reference value: 7.7%); assay type: functional
[17] = target: RAF proto-oncogene serine/threonine-protein kinase (Homo sapiens, UniProt P04049); test: Inhibition of human CRAF using MEK1 (K97R) as substrate in presence of [gamma-33P]ATP by scintillation counting method
[18] = target: Epithelial discoidin domain-containing receptor 1 (Homo sapiens, UniProt Q08345); test: Inhibition of human DDR1 using KKSRGDYMTMQIG as substrate in presence of [gamma-33P]ATP by scintillation counting method
[19] = target: Serine/threonine-protein kinase B-raf (Homo sapiens, UniProt P15056); test: Inhibition of human BRAF using MEK1 (K97R) as substrate in presence of [gamma-33P]ATP by scintillation counting method
Homo sapiens = species on record: Homo sapiens; test: Selectivity ratio of IC50 for inhibition of human BRAF V600E mutant to IC50 for inhibition of human CRAF

Chain of RAF proto-oncogene serine/threonine-protein kinase (P04049 whole entry, the tested form may be a part): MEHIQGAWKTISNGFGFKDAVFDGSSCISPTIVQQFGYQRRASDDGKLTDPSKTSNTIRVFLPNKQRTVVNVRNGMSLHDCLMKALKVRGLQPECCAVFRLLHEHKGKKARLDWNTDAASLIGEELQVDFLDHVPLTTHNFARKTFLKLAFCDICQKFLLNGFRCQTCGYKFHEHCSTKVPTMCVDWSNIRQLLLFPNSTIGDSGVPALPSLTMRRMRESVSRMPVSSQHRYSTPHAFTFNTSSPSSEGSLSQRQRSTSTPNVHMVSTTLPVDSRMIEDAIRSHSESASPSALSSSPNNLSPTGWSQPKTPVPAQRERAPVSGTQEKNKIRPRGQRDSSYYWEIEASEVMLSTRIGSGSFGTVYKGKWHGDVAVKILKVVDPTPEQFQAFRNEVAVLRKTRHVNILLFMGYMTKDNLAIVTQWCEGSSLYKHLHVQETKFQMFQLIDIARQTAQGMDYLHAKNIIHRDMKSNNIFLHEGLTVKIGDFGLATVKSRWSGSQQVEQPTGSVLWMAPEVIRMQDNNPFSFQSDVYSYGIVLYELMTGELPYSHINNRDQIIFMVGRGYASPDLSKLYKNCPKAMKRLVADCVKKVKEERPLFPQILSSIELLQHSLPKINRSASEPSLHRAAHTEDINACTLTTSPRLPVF
Chain of Serine/threonine-protein kinase B-raf (P15056 whole entry): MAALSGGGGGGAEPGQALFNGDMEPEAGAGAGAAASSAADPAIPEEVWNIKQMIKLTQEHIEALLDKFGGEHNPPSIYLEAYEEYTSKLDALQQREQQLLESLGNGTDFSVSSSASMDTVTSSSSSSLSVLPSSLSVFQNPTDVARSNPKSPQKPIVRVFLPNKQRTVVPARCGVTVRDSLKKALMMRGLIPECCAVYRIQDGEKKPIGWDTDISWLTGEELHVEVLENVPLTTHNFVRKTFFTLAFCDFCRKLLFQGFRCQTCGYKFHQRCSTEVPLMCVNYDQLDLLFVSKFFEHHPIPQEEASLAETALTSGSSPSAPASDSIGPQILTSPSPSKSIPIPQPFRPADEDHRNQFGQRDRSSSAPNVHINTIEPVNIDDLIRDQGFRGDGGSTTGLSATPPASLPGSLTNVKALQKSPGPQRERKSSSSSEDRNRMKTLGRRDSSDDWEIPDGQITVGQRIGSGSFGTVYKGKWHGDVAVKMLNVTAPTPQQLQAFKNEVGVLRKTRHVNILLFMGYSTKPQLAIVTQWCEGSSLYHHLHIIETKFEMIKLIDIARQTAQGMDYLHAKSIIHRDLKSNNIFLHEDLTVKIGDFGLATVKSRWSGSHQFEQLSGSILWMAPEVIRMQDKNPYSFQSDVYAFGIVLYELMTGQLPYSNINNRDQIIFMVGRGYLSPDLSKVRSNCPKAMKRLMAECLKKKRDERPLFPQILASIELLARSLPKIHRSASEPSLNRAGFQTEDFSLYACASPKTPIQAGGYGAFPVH
Chain of Epithelial discoidin domain-containing receptor 1 (Q08345 whole entry, the tested form may be a part): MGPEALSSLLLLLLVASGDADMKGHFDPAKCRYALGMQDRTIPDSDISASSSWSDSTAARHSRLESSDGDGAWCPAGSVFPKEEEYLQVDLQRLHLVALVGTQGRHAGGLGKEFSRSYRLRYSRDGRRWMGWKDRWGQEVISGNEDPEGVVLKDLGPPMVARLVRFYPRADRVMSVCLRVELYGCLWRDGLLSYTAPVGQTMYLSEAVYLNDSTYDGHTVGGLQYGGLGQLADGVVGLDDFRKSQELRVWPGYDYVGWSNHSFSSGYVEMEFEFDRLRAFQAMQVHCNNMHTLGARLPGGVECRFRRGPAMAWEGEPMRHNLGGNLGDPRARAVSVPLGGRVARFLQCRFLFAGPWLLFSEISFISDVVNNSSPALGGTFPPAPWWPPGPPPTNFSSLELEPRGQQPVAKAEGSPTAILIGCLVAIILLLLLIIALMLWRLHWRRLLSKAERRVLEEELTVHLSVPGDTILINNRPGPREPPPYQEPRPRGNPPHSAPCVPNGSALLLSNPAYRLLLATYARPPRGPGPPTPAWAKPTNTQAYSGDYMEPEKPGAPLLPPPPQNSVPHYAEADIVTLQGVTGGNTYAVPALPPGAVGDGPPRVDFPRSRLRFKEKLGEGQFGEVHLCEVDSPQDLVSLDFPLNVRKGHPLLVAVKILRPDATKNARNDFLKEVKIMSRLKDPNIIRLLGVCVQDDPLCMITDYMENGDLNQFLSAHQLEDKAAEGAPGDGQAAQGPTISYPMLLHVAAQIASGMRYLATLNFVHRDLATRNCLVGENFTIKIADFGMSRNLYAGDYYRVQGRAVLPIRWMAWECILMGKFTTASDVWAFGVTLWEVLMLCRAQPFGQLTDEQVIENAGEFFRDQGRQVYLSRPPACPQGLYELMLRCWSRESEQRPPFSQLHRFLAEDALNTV

**Q.** What does the source list for `CCN1CCN(c2cc(C(=O)Nc3cccc(Nc4ccc5c(OC)cccc5n4)c3)cc(C(F)(F)F)c2)CC1`?
**A.** GI50 (HL-60(TB)): 3820 nM; GI50 (RPMI-8226): 1200 nM; LC50 (concentration killing 50% of cells) (RPMI-8226): 15300 nM; TGI (RPMI-8226): 5320 nM; GI50 (A549): 1050 nM; GI50 (HOP-62): 1020 nM; GI50 (NCI-H322M): 1330 nM; GI50 (NCI-H460): 1340 nM; GI50 (HCT-15): 798 nM; GI50 (SW-620): 3670 nM; GI50 (SF-295): 803 nM; LC50 (SF-295): 11400 nM; TGI (SF-295): 2250 nM; GI50 (SNB-19): 2100 nM; GI50 (SNB-75): 1050 nM; GI50 (SK-MEL-2): 5300 nM; GI50 (OVCAR-3): 3410 nM; GI50 (OVCAR-4): 1570 nM; GI50 (NCI/ADR-RES): 1290 nM; GI50 (SK-OV-3): 4600 nM; GI50 (A498): 4940 nM; GI50 (TK-10): 3470 nM; GI50 (MCF7): 679 nM; LC50 (MCF7): 17600 nM; TGI (MCF7): 2280 nM; GI50 (Hs-578T): 3610 nM; GI50 (T47D): 2050 nM; viability at 48 h, 1 µM [1]: 91.2%; viability at 48 h, 3 µM [2]: 82.8%; viability at 48 h, 10 µM [3]: 68.2%; viability at 48 h, 3 µM [4]: 76.8%; Activity (HCT-116 [5]): Dose-dependent effect; Activity (HCT-116 [6]): 12.5%; Activity (HCT-116 [7]): 0.6%; Activity (HCT-116 [8]): 0.4%; viability at 2.5 µM (HCT-116 [9]): 82.9%; Activity (HCT-116 [10]): 15.6%; Activity (HCT-116 [11]): 0.8%; Activity (HCT-116 [12]): 0.4%; viability at 2.5 µM (HCT-116 [13]): 78.8%; Activity (HCT-116 [14]): 19%; Activity (HCT-116 [15]): 1%; Activity (HCT-116 [16]): 1.2%; pIC50 [17]: 6.64; pIC50 [18]: 6.27; pIC50 [19]: 5.65; Ratio IC50 (Homo sapiens): 2
